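Cells were grown in 96-well plates and exposed to each compound for 48 hours at five concentrations; endpoints were interpolated linearly between bracketing concentrations, or set to the highest concentration if not reached. TGI denotes the concentration required for complete inhibition of growth.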
How the values were obtained:
Assay in all cases: NCI-60 cell line screen, 48 h
786-0 renal = system: 786-0 renal
A498 renal = system: A498 renal
A549 NSCLC = system: A549 NSCLC
ACHN renal = system: ACHN renal
BT-549 breast = system: BT-549 breast
CAKI-1 renal = system: CAKI-1 renal
EKVX NSCLC = system: EKVX NSCLC
HCC-2998 colon = system: HCC-2998 colon
HCT-116 colon = system: HCT-116 colon
HCT-15 colon = system: HCT-15 colon
HL-60(TB) leukemia = system: HL-60(TB) leukemia
HOP-62 NSCLC = system: HOP-62 NSCLC
HOP-92 NSCLC = system: HOP-92 NSCLC
HS 578T breast = system: HS 578T breast
HT29 colon = system: HT29 colon
IGROV1 ovarian = system: IGROV1 ovarian
K-562 leukemia = system: K-562 leukemia
KM12 colon = system: KM12 colon
LOX IMVI melanoma = system: LOX IMVI melanoma
M14 melanoma = system: M14 melanoma
MALME-3M melanoma = system: MALME-3M melanoma
MCF7 breast = system: MCF7 breast
MDA-MB-231 breast = system: MDA-MB-231 breast
MDA-MB-435 = system: MDA-MB-435
MDA-N = system: MDA-N
MOLT-4 leukemia = system: MOLT-4 leukemia
NCI-H226 lung = system: NCI-H226 lung
NCI-H23 lung = system: NCI-H23 lung
NCI-H460 lung = system: NCI-H460 lung
NCI-H522 lung = system: NCI-H522 lung
NCI/ADR-RES ovarian = system: NCI/ADR-RES ovarian
OVCAR-3 ovarian = system: OVCAR-3 ovarian
OVCAR-4 ovarian = system: OVCAR-4 ovarian
OVCAR-5 ovarian = system: OVCAR-5 ovarian
OVCAR-8 ovarian = system: OVCAR-8 ovarian
PC-3 prostate = system: PC-3 prostate
RPMI-8226 leukemia = system: RPMI-8226 leukemia
RXF 393 renal = system: RXF 393 renal
SF-268 CNS = system: SF-268 CNS
SF-295 CNS = system: SF-295 CNS
SF-539 CNS = system: SF-539 CNS
SK-MEL-2 melanoma = system: SK-MEL-2 melanoma
SK-MEL-28 melanoma = system: SK-MEL-28 melanoma
SK-MEL-5 melanoma = system: SK-MEL-5 melanoma
SK-OV-3 ovarian = system: SK-OV-3 ovarian
SN12C renal = system: SN12C renal
SNB-75 CNS = system: SNB-75 CNS
SR leukemia = system: SR leukemia
SW-620 colon = system: SW-620 colon
T-47D breast = system: T-47D breast
TK-10 renal = system: TK-10 renal
U251 CNS = system: U251 CNS
UACC-257 melanoma = system: UACC-257 melanoma
UACC-62 melanoma = system: UACC-62 melanoma
UO-31 renal = system: UO-31 renal
CCRF-CEM leukemia = system: CCRF-CEM leukemia
COLO 205 colon = system: COLO 205 colon
SNB-19 CNS = system: SNB-19 CNS

## CC(=O)c1ccc(NC(=O)/C(CC(=O)/C=C/c2ccccc2)=N/NC(N)=S)cc1
786-0 renal
  TGI: > 100 µM
A498 renal
  TGI: > 100 µM
A549 NSCLC
  TGI: > 100 µM
ACHN renal
  TGI: > 100 µM
BT-549 breast
  TGI: > 100 µM
CAKI-1 renal
  TGI: > 100 µM
EKVX NSCLC
  TGI: > 100 µM
HCC-2998 colon
  TGI: > 100 µM
HCT-116 colon
  TGI: > 100 µM
HCT-15 colon
  TGI: > 100 µM
HL-60(TB) leukemia
  TGI: > 100 µM
HOP-62 NSCLC
  TGI: > 100 µM
HOP-92 NSCLC
  TGI: > 100 µM
HS 578T breast
  TGI: > 100 µM
HT29 colon
  TGI: > 100 µM
IGROV1 ovarian
  TGI: > 100 µM
K-562 leukemia
  TGI: > 100 µM
KM12 colon
  TGI: > 100 µM
LOX IMVI melanoma
  TGI: > 100 µM
M14 melanoma
  TGI: > 100 µM
MALME-3M melanoma
  TGI: > 100 µM
MCF7 breast
  TGI: > 100 µM
MDA-MB-231 breast
  TGI: > 100 µM
MDA-MB-435
  TGI: > 100 µM
MDA-N
  TGI: > 100 µM
MOLT-4 leukemia
  TGI: > 100 µM
NCI-H226 lung
  TGI: > 100 µM
NCI-H23 lung
  TGI: > 100 µM
NCI-H460 lung
  TGI: > 100 µM
NCI-H522 lung
  TGI: > 100 µM
NCI/ADR-RES ovarian
  TGI: > 100 µM
OVCAR-3 ovarian
  TGI: > 100 µM
OVCAR-4 ovarian
  TGI: > 100 µM
OVCAR-5 ovarian
  TGI: > 100 µM
OVCAR-8 ovarian
  TGI: > 100 µM
PC-3 prostate
  TGI: > 100 µM
RPMI-8226 leukemia
  TGI: > 100 µM
RXF 393 renal
  TGI: > 100 µM
SF-268 CNS
  TGI: > 100 µM
SF-295 CNS
  TGI: > 100 µM
SF-539 CNS
  TGI: > 100 µM
SK-MEL-2 melanoma
  TGI: > 100 µM
SK-MEL-28 melanoma
  TGI: > 100 µM
SK-MEL-5 melanoma
  TGI: > 100 µM
SK-OV-3 ovarian
  TGI: > 100 µM
SN12C renal
  TGI: > 100 µM
SNB-75 CNS
  TGI: > 100 µM
SR leukemia
  TGI: > 100 µM
SW-620 colon
  TGI: > 100 µM
T-47D breast
  TGI: > 100 µM
TK-10 renal
  TGI: > 100 µM
U251 CNS
  TGI: > 100 µM
UACC-257 melanoma
  TGI: > 100 µM
UACC-62 melanoma
  TGI: > 100 µM
UO-31 renal
  TGI: > 100 µM

## COc1ccc(C2=Nn3c(nnc3-c3ccccc3)S/C2=C\c2ccc(-c3ccc([N+](=O)[O-])cc3)o2)cc1
786-0 renal
  TGI: > 100 µM
A498 renal
  TGI: > 100 µM
A549 NSCLC
  TGI: > 100 µM
ACHN renal
  TGI: > 100 µM
BT-549 breast
  TGI: > 100 µM
CAKI-1 renal
  TGI: > 100 µM
CCRF-CEM leukemia
  TGI: 32.7 µM
COLO 205 colon
  TGI: 70 µM
EKVX NSCLC
  TGI: > 100 µM
HCC-2998 colon
  TGI: > 100 µM
HCT-116 colon
  TGI: > 100 µM
HCT-15 colon
  TGI: > 100 µM
HL-60(TB) leukemia
  TGI: 59 µM
HOP-62 NSCLC
  TGI: > 100 µM
HOP-92 NSCLC
  TGI: > 100 µM
HS 578T breast
  TGI: > 100 µM
HT29 colon
  TGI: 90.3 µM
IGROV1 ovarian
  TGI: > 100 µM
K-562 leukemia
  TGI: 88.8 µM
KM12 colon
  TGI: > 100 µM
LOX IMVI melanoma
  TGI: > 100 µM
M14 melanoma
  TGI: 86.1 µM
MALME-3M melanoma
  TGI: > 100 µM
MCF7 breast
  TGI: > 100 µM
MDA-MB-435
  TGI: 51.3 µM
MDA-N
  TGI: > 100 µM
MOLT-4 leukemia
  TGI: 76.6 µM
NCI-H460 lung
  TGI: > 100 µM
NCI-H522 lung
  TGI: 81.8 µM
NCI/ADR-RES ovarian
  TGI: > 100 µM
OVCAR-3 ovarian
  TGI: > 100 µM
OVCAR-4 ovarian
  TGI: > 100 µM
OVCAR-5 ovarian
  TGI: > 100 µM
OVCAR-8 ovarian
  TGI: > 100 µM
PC-3 prostate
  TGI: > 100 µM
RPMI-8226 leukemia
  TGI: 80.2 µM
SF-268 CNS
  TGI: > 100 µM
SF-295 CNS
  TGI: > 100 µM
SK-MEL-2 melanoma
  TGI: 67.6 µM
SK-MEL-28 melanoma
  TGI: > 100 µM
SK-MEL-5 melanoma
  TGI: > 100 µM
SK-OV-3 ovarian
  TGI: > 100 µM
SN12C renal
  TGI: > 100 µM
SNB-19 CNS
  TGI: > 100 µM
SR leukemia
  TGI: > 100 µM
SW-620 colon
  TGI: > 100 µM
T-47D breast
  TGI: > 100 µM
U251 CNS
  TGI: > 100 µM
UACC-257 melanoma
  TGI: > 100 µM
UACC-62 melanoma
  TGI: > 100 µM
UO-31 renal
  TGI: > 100 µM
